Results as given in PubChem BioAssay (NCI).
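GI50 is the concentration that inhibits growth by half. TGI denotes the concentration required for complete inhibition of growth.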

Assays:
Test in all cases: NCI-60 cell line screen, 384-well format
NCI-H226 lung = test system: NCI-H226 lung
NCI-H23 lung = test system: NCI-H23 lung
NCI-H322M lung = test system: NCI-H322M lung
NCI-H460 NSCLC = test system: NCI-H460 NSCLC
NCI-H522 lung = test system: NCI-H522 lung
NCI/ADR-RES ovarian = test system: NCI/ADR-RES ovarian
OVCAR-3 ovarian = test system: OVCAR-3 ovarian
OVCAR-4 ovarian = test system: OVCAR-4 ovarian
OVCAR-5 ovarian = test system: OVCAR-5 ovarian
OVCAR-8 ovarian = test system: OVCAR-8 ovarian
PC-3 prostate = test system: PC-3 prostate
RPMI-8226 leukemia = test system: RPMI-8226 leukemia
RXF 393 renal = test system: RXF 393 renal
SF-268 CNS = test system: SF-268 CNS
SF-295 CNS = test system: SF-295 CNS
SF-539 CNS = test system: SF-539 CNS
SK-MEL-28 melanoma = test system: SK-MEL-28 melanoma
SK-MEL-5 melanoma = test system: SK-MEL-5 melanoma
SK-OV-3 ovarian = test system: SK-OV-3 ovarian
SN12C renal = test system: SN12C renal
SNB-19 CNS = test system: SNB-19 CNS
SNB-75 CNS = test system: SNB-75 CNS
SW-620 colon = test system: SW-620 colon
T-47D breast = test system: T-47D breast
TK-10 renal = test system: TK-10 renal
U251 glioblastoma = test system: U251 glioblastoma
UACC-257 melanoma = test system: UACC-257 melanoma
UACC-62 melanoma = test system: UACC-62 melanoma
UO-31 renal = test system: UO-31 renal

Q: `COc1cc2cc(C(=O)CCC(=O)O)sc2cc1OC` was tested. Which GI50 (NCI-H226 lung) did it give?
A: The GI50 was 19.5 µM.

Q: And the TGI (NCI-H226 lung)?
A: The TGI was 74.4 µM.

Q: What about the GI50 (NCI-H23 lung) of the same molecule?
A: Its GI50 is over 100 µM.

Q: And the TGI (NCI-H23 lung)?
A: Its TGI is over 100 µM.

Q: And the GI50 (NCI-H322M lung)?
A: The GI50 was over 100 µM.

Q: What about the TGI (NCI-H322M lung) of the same molecule?
A: The TGI was over 100 µM.

Q: What about the GI50 (NCI-H460 NSCLC) of the same molecule?
A: The GI50 was over 100 µM.

Q: And the TGI (NCI-H460 NSCLC)?
A: Its TGI is over 100 µM.

Q: What about the GI50 (NCI-H522 lung) of the same molecule?
A: Its GI50 is over 100 µM.

Q: And the TGI (NCI-H522 lung)?
A: The TGI was over 100 µM.

Q: And the GI50 (NCI/ADR-RES ovarian)?
A: The GI50 was over 100 µM.

Q: What about the TGI (NCI/ADR-RES ovarian) of the same molecule?
A: Its TGI is over 100 µM.

Q: What about the GI50 (OVCAR-3 ovarian) of the same molecule?
A: The GI50 was over 100 µM.

Q: What about the TGI (OVCAR-3 ovarian) of the same molecule?
A: The TGI was over 100 µM.

Q: And the GI50 (OVCAR-4 ovarian)?
A: The GI50 was over 100 µM.

Q: And the TGI (OVCAR-4 ovarian)?
A: The TGI was over 100 µM.

Q: What about the GI50 (OVCAR-5 ovarian) of the same molecule?
A: The GI50 was over 100 µM.

Q: And the TGI (OVCAR-5 ovarian)?
A: Its TGI is over 100 µM.

Q: And the GI50 (OVCAR-8 ovarian)?
A: Its GI50 is over 100 µM.

Q: What about the TGI (OVCAR-8 ovarian) of the same molecule?
A: Its TGI is over 100 µM.

Q: What about the GI50 (PC-3 prostate) of the same molecule?
A: Its GI50 is over 100 µM.

Q: And the TGI (PC-3 prostate)?
A: The TGI was over 100 µM.

Q: And the GI50 (RPMI-8226 leukemia)?
A: The GI50 was over 100 µM.

Q: And the TGI (RPMI-8226 leukemia)?
A: Its TGI is over 100 µM.

Q: What about the GI50 (RXF 393 renal) of the same molecule?
A: The GI50 was 25 µM.

Q: What about the TGI (RXF 393 renal) of the same molecule?
A: The TGI was over 100 µM.

Q: And the GI50 (SF-268 CNS)?
A: Its GI50 is over 100 µM.

Q: And the TGI (SF-268 CNS)?
A: Its TGI is over 100 µM.

Q: And the GI50 (SF-295 CNS)?
A: The GI50 was over 100 µM.

Q: And the TGI (SF-295 CNS)?
A: The TGI was over 100 µM.

Q: What about the GI50 (SF-539 CNS) of the same molecule?
A: Its GI50 is over 100 µM.

Q: What about the TGI (SF-539 CNS) of the same molecule?
A: The TGI was over 100 µM.

Q: And the GI50 (SK-MEL-28 melanoma)?
A: Its GI50 is over 100 µM.

Q: What about the TGI (SK-MEL-28 melanoma) of the same molecule?
A: Its TGI is over 100 µM.

Q: What about the GI50 (SK-MEL-5 melanoma) of the same molecule?
A: The GI50 was over 100 µM.

Q: And the TGI (SK-MEL-5 melanoma)?
A: The TGI was over 100 µM.

Q: And the GI50 (SK-OV-3 ovarian)?
A: The GI50 was over 100 µM.

Q: What about the TGI (SK-OV-3 ovarian) of the same molecule?
A: Its TGI is over 100 µM.

Q: What about the GI50 (SN12C renal) of the same molecule?
A: Its GI50 is over 100 µM.

Q: What about the TGI (SN12C renal) of the same molecule?
A: Its TGI is over 100 µM.

Q: And the GI50 (SNB-19 CNS)?
A: Its GI50 is over 100 µM.

Q: And the TGI (SNB-19 CNS)?
A: The TGI was over 100 µM.

Q: And the GI50 (SNB-75 CNS)?
A: Its GI50 is over 100 µM.

Q: And the TGI (SNB-75 CNS)?
A: The TGI was over 100 µM.

Q: And the GI50 (SW-620 colon)?
A: Its GI50 is over 100 µM.

Q: What about the TGI (SW-620 colon) of the same molecule?
A: The TGI was over 100 µM.

Q: What about the GI50 (T-47D breast) of the same molecule?
A: Its GI50 is over 100 µM.

Q: What about the TGI (T-47D breast) of the same molecule?
A: The TGI was over 100 µM.

Q: And the GI50 (TK-10 renal)?
A: The GI50 was over 100 µM.

Q: And the TGI (TK-10 renal)?
A: The TGI was over 100 µM.

Q: What about the GI50 (U251 glioblastoma) of the same molecule?
A: The GI50 was over 100 µM.

Q: And the TGI (U251 glioblastoma)?
A: The TGI was over 100 µM.

Q: And the GI50 (UACC-257 melanoma)?
A: Its GI50 is over 100 µM.

Q: And the TGI (UACC-257 melanoma)?
A: Its TGI is over 100 µM.

Q: And the GI50 (UACC-62 melanoma)?
A: The GI50 was over 100 µM.

Q: And the TGI (UACC-62 melanoma)?
A: The TGI was over 100 µM.

Q: What about the GI50 (UO-31 renal) of the same molecule?
A: The GI50 was over 100 µM.

Q: What about the TGI (UO-31 renal) of the same molecule?
A: The TGI was over 100 µM.
